Assay results reported in US9169310B2 (Zealand Pharma A/S, priority 2010, dated 2015).
Starred links: 1 amine or outer side, 2 acyl side, 3 side chain; linkers in the order of their positions; H or OH if unused. Non-standard residues stand in square brackets, D forms with d. Residues, ends and D or L forms follow the SMILES beside them. Groups on a side chain read outwards from the residue. *: point of attachment. Ala(4-thiazolyl) = N[C@@H](Cc1cscn1)C(=O)O; γGlu = O=C(O)[C@H](CCC(=O)[*:2])N[*:1]; X1 = O=C([C@H](Cn1cncn1)N[*:1])[*:2]; Palmitoyl = CCCCCCCCCCCCCCCC(=O)*; Aib = CC(C)(N)C(=O)O

The molecules below were run against T1, human GLP-1R (Homo sapiens, UniProt P43220) (assay: GLP-1 receptor efficacy assay (cAMP formation, FlashPlate cAMP kit)). Conditions: HEK293 cells expressing human GLP-1R; cAMP formed, 15 min at 37° C.
T1 construct: expressed in transfected cells
T1 sequence (P43220 24-463): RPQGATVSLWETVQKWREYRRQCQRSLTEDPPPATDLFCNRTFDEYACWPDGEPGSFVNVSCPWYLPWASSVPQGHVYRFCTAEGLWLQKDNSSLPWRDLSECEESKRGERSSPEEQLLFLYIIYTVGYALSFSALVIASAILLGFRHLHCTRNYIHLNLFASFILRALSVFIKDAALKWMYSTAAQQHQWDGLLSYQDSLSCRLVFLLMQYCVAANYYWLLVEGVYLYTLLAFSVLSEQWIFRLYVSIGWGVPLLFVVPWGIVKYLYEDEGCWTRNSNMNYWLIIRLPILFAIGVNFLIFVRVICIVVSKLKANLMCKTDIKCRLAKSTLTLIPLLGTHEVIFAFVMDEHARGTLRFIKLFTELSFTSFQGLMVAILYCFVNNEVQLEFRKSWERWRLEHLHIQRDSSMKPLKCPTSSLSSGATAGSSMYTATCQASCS
Assay type: cell-based
Protocol: The 5′-end primers additionally encoded a near Kozak consensus sequence to ensure efficient translation.
48 hr after transfection, cells were seeded for limited dilution cloning and selected with 1 mg/ml G418 in the culture medium.

EC50	SMILES
0.11 nM	CCCCCCCCCCCCCCCC(=O)N[C@@H](CCC(=O)NCCCC[C@H](NC(=O)[C@H](CO)NC(=O)[C@H](CC(=O)O)NC(=O)[C@H](CC(C)C)NC(=O)[C@H](Cc1ccc(O)cc1)NC(=O)[C@H](CCCCN)NC(=O)[C@H](CO)NC(=O)[C@H](Cc1ccc(O)cc1)NC(=O)[C@H](CC(=O)O)NC(=O)[C@H](CO)NC(=O)[C@@H](NC(=O)[C@H](Cc1ccccc1)NC(=O)[C@@H](NC(=O)CNC(=O)[C@H](Cc1cscn1)NC(=O)C(C)(C)NC(=O)[C@@H](N)Cc1c[nH]cn1)[C@@H](C)O)[C@@H](C)O)C(=O)N[C@@H](C)C(=O)N[C@@H](C)C(=O)N[C@@H](Cc1c[nH]cn1)C(=O)N[C@@H](CC(=O)O)C(=O)N[C@@H](Cc1ccccc1)C(=O)N[C@H](C(=O)N[C@@H](CCC(=O)O)C(=O)N[C@@H](Cc1c[nH]c2ccccc12)C(=O)N[C@@H](CC(C)C)C(=O)N[C@@H](CC(C)C)C(=O)N[C@@H](CO)C(=O)N[C@@H](C)C(N)=O)C(C)C)C(=O)O [Compound 23] (H-H[Aib][Ala(4-thiazolyl)]GTFTSDYSKYLDSK([γGlu-Palmitoyl])AAHDFVEWLLSA-NH2)
0.09 nM	CCCCCCCCCCCCCCCC(=O)N[C@@H](CCC(=O)NCCCC[C@H](NC(=O)[C@H](CO)NC(=O)[C@H](CC(=O)O)NC(=O)[C@H](CC(C)C)NC(=O)[C@H](Cc1ccc(O)cc1)NC(=O)[C@H](CCCCN)NC(=O)[C@H](CO)NC(=O)[C@H](Cc1ccc(O)cc1)NC(=O)[C@H](CC(=O)O)NC(=O)[C@H](CO)NC(=O)[C@@H](NC(=O)[C@H](Cc1ccccc1)NC(=O)[C@@H](NC(=O)CNC(=O)[C@H](Cn1cncn1)NC(=O)C(C)(C)NC(=O)[C@@H](N)Cc1c[nH]cn1)[C@@H](C)O)[C@@H](C)O)C(=O)N[C@@H](C)C(=O)N[C@@H](C)C(=O)N[C@@H](Cc1c[nH]cn1)C(=O)N[C@@H](CC(=O)O)C(=O)N[C@@H](Cc1ccccc1)C(=O)N[C@H](C(=O)N[C@@H](CCC(=O)O)C(=O)N[C@@H](Cc1c[nH]c2ccccc12)C(=O)N[C@@H](CC(C)C)C(=O)N[C@@H](CC(C)C)C(=O)N[C@@H](CO)C(=O)N[C@@H](C)C(N)=O)C(C)C)C(=O)O [Compound 25] (H-H[Aib][X1]GTFTSDYSKYLDSK([γGlu-Palmitoyl])AAHDFVEWLLSA-NH2)
0.21 nM	CCCCCCCCCCCCCCCC(=O)N[C@@H](CCC(=O)NCCCC[C@H](NC(=O)[C@H](CO)NC(=O)[C@H](CC(=O)O)NC(=O)[C@H](CC(C)C)NC(=O)[C@H](Cc1ccc(O)cc1)NC(=O)[C@H](CCCCN)NC(=O)[C@H](CO)NC(=O)[C@H](Cc1ccc(O)cc1)NC(=O)[C@H](CC(=O)O)NC(=O)[C@H](CO)NC(=O)[C@@H](NC(=O)[C@H](Cc1ccccc1)NC(=O)[C@@H](NC(=O)CNC(=O)[C@H](Cc1c[nH]cn1)NC(=O)C(C)(C)NC(=O)[C@@H](N)Cc1c[nH]cn1)[C@@H](C)O)[C@@H](C)O)C(=O)N[C@@H](C)C(=O)N[C@@H](C)C(=O)N[C@@H](Cc1c[nH]cn1)C(=O)N[C@@H](CC(=O)O)C(=O)N[C@@H](Cc1ccccc1)C(=O)N[C@H](C(=O)N[C@@H](CCC(=O)O)C(=O)N[C@@H](Cc1c[nH]c2ccccc12)C(=O)N[C@@H](CC(C)C)C(=O)N[C@@H](CC(C)C)C(=O)N[C@@H](CO)C(=O)N[C@@H](C)C(N)=O)C(C)C)C(=O)O [Compound 1] (H-H[Aib]HGTFTSDYSKYLDSK([γGlu-Palmitoyl])AAHDFVEWLLSA-NH2)
